Reference: PubChem BioAssay (NCI)
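All cell lines were grown in 96-well plates and treated with compound for 48 hours. TGI: total growth inhibition.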

How the values were obtained:
Experiment in all cases: growth of human tumour cells (NCI), 48 h
OVCAR-5 ovarian = tested on: OVCAR-5 ovarian
RPMI-8226 leukemia = tested on: RPMI-8226 leukemia
HL-60(TB) leukemia = tested on: HL-60(TB) leukemia
LOX IMVI melanoma = tested on: LOX IMVI melanoma
HS 578T breast = tested on: HS 578T breast
NCI-H226 lung = tested on: NCI-H226 lung
MALME-3M melanoma = tested on: MALME-3M melanoma
SF-539 CNS = tested on: SF-539 CNS
SN12C renal = tested on: SN12C renal
SF-295 CNS = tested on: SF-295 CNS
T-47D breast = tested on: T-47D breast
SF-268 CNS = tested on: SF-268 CNS
CCRF-CEM leukemia = tested on: CCRF-CEM leukemia
SR leukemia = tested on: SR leukemia
RXF 393 renal = tested on: RXF 393 renal
NCI-H522 lung = tested on: NCI-H522 lung
SK-MEL-5 melanoma = tested on: SK-MEL-5 melanoma
IGROV1 ovarian = tested on: IGROV1 ovarian
SK-OV-3 ovarian = tested on: SK-OV-3 ovarian
SK-MEL-2 melanoma = tested on: SK-MEL-2 melanoma
OVCAR-3 ovarian = tested on: OVCAR-3 ovarian
MDA-MB-435 = tested on: MDA-MB-435
DU-145 prostate = tested on: DU-145 prostate
TK-10 renal = tested on: TK-10 renal
MDA-MB-231 breast = tested on: MDA-MB-231 breast
A498 renal = tested on: A498 renal
ACHN renal = tested on: ACHN renal
OVCAR-4 ovarian = tested on: OVCAR-4 ovarian
HOP-62 NSCLC = tested on: HOP-62 NSCLC
BT-549 breast = tested on: BT-549 breast
MCF7 breast = tested on: MCF7 breast
MDA-N = tested on: MDA-N
EKVX NSCLC = tested on: EKVX NSCLC
HCT-116 colon = tested on: HCT-116 colon
UO-31 renal = tested on: UO-31 renal
OVCAR-8 ovarian = tested on: OVCAR-8 ovarian
HCC-2998 colon = tested on: HCC-2998 colon
M14 melanoma = tested on: M14 melanoma
KM12 colon = tested on: KM12 colon
A549 NSCLC = tested on: A549 NSCLC
HCT-15 colon = tested on: HCT-15 colon
MOLT-4 leukemia = tested on: MOLT-4 leukemia
UACC-257 melanoma = tested on: UACC-257 melanoma
SNB-19 CNS = tested on: SNB-19 CNS
SNB-75 CNS = tested on: SNB-75 CNS
786-0 renal = tested on: 786-0 renal
U251 CNS = tested on: U251 CNS
HOP-92 NSCLC = tested on: HOP-92 NSCLC
SK-MEL-28 melanoma = tested on: SK-MEL-28 melanoma
HT29 colon = tested on: HT29 colon
SW-620 colon = tested on: SW-620 colon
CAKI-1 renal = tested on: CAKI-1 renal
NCI/ADR-RES ovarian = tested on: NCI/ADR-RES ovarian
UACC-62 melanoma = tested on: UACC-62 melanoma
COLO 205 colon = tested on: COLO 205 colon
NCI-H23 lung = tested on: NCI-H23 lung
PC-3 prostate = tested on: PC-3 prostate
K-562 leukemia = tested on: K-562 leukemia
NCI-H460 lung = tested on: NCI-H460 lung

## CCC1CC(C)C(O)/C=C/C=C/CC(C)OC(=O)CC(O)C(OC)C1OC1OC(C)CC(O)(C(C)=O)C1O (centres undefined)
OVCAR-5 ovarian
  TGI: > 100 µM
RPMI-8226 leukemia
  TGI: > 100 µM
HL-60(TB) leukemia
  TGI: 42.4 µM
LOX IMVI melanoma
  TGI: > 100 µM
HS 578T breast
  TGI: > 100 µM
NCI-H226 lung
  TGI: > 100 µM
MALME-3M melanoma
  TGI: > 100 µM
SF-539 CNS
  TGI: > 100 µM
SN12C renal
  TGI: > 100 µM
SF-295 CNS
  TGI: > 100 µM
T-47D breast
  TGI: > 100 µM
SF-268 CNS
  TGI: > 100 µM
CCRF-CEM leukemia
  TGI: > 100 µM
SR leukemia
  TGI: 59.8 µM
RXF 393 renal
  TGI: > 100 µM
NCI-H522 lung
  TGI: 51.4 µM
SK-MEL-5 melanoma
  TGI: > 100 µM
IGROV1 ovarian
  TGI: > 100 µM
SK-OV-3 ovarian
  TGI: > 100 µM
SK-MEL-2 melanoma
  TGI: > 100 µM
OVCAR-3 ovarian
  TGI: > 100 µM
MDA-MB-435
  TGI: > 100 µM
DU-145 prostate
  TGI: > 100 µM
TK-10 renal
  TGI: > 100 µM
MDA-MB-231 breast
  TGI: 67.9 µM
A498 renal
  TGI: > 100 µM
ACHN renal
  TGI: > 100 µM
OVCAR-4 ovarian
  TGI: 42.8 µM
HOP-62 NSCLC
  TGI: > 100 µM
BT-549 breast
  TGI: > 100 µM
MCF7 breast
  TGI: > 100 µM
MDA-N
  TGI: > 100 µM
EKVX NSCLC
  TGI: > 100 µM
HCT-116 colon
  TGI: > 100 µM
UO-31 renal
  TGI: > 100 µM
OVCAR-8 ovarian
  TGI: > 100 µM
HCC-2998 colon
  TGI: 66.5 µM
M14 melanoma
  TGI: > 100 µM
KM12 colon
  TGI: > 100 µM
A549 NSCLC
  TGI: > 100 µM
HCT-15 colon
  TGI: > 100 µM
MOLT-4 leukemia
  TGI: > 100 µM
UACC-257 melanoma
  TGI: > 100 µM
SNB-19 CNS
  TGI: 79.5 µM
SNB-75 CNS
  TGI: > 100 µM
786-0 renal
  TGI: > 100 µM
U251 CNS
  TGI: > 100 µM
HOP-92 NSCLC
  TGI: > 100 µM
SK-MEL-28 melanoma
  TGI: > 100 µM
HT29 colon
  TGI: > 100 µM
SW-620 colon
  TGI: > 100 µM
CAKI-1 renal
  TGI: > 100 µM
NCI/ADR-RES ovarian
  TGI: > 100 µM
UACC-62 melanoma
  TGI: > 100 µM
COLO 205 colon
  TGI: > 100 µM
NCI-H23 lung
  TGI: > 100 µM
PC-3 prostate
  TGI: > 100 µM

## CN(/N=C(\C(=O)O)c1ccccc1)C1=NCCCCN1
OVCAR-5 ovarian
  TGI: > 100 µM
RPMI-8226 leukemia
  TGI: > 100 µM
HL-60(TB) leukemia
  TGI: > 100 µM
LOX IMVI melanoma
  TGI: > 100 µM
HS 578T breast
  TGI: > 100 µM
NCI-H226 lung
  TGI: > 100 µM
K-562 leukemia
  TGI: > 100 µM
MALME-3M melanoma
  TGI: > 100 µM
SF-539 CNS
  TGI: > 100 µM
SN12C renal
  TGI: > 100 µM
SF-295 CNS
  TGI: > 100 µM
T-47D breast
  TGI: > 100 µM
SF-268 CNS
  TGI: > 100 µM
CCRF-CEM leukemia
  TGI: > 100 µM
SR leukemia
  TGI: > 100 µM
RXF 393 renal
  TGI: > 100 µM
NCI-H522 lung
  TGI: > 100 µM
SK-MEL-5 melanoma
  TGI: > 100 µM
IGROV1 ovarian
  TGI: > 100 µM
SK-OV-3 ovarian
  TGI: > 100 µM
SK-MEL-2 melanoma
  TGI: > 100 µM
OVCAR-3 ovarian
  TGI: > 100 µM
MDA-MB-435
  TGI: > 100 µM
DU-145 prostate
  TGI: > 100 µM
TK-10 renal
  TGI: > 100 µM
MDA-MB-231 breast
  TGI: > 100 µM
A498 renal
  TGI: > 100 µM
ACHN renal
  TGI: > 100 µM
OVCAR-4 ovarian
  TGI: > 100 µM
HOP-62 NSCLC
  TGI: > 100 µM
BT-549 breast
  TGI: > 100 µM
MCF7 breast
  TGI: > 100 µM
NCI-H460 lung
  TGI: > 100 µM
MDA-N
  TGI: > 100 µM
EKVX NSCLC
  TGI: > 100 µM
HCT-116 colon
  TGI: > 100 µM
UO-31 renal
  TGI: > 100 µM
OVCAR-8 ovarian
  TGI: > 100 µM
HCC-2998 colon
  TGI: > 100 µM
KM12 colon
  TGI: > 100 µM
A549 NSCLC
  TGI: > 100 µM
HCT-15 colon
  TGI: > 100 µM
MOLT-4 leukemia
  TGI: > 100 µM
UACC-257 melanoma
  TGI: > 100 µM
SNB-75 CNS
  TGI: > 100 µM
786-0 renal
  TGI: > 100 µM
U251 CNS
  TGI: > 100 µM
HOP-92 NSCLC
  TGI: > 100 µM
SK-MEL-28 melanoma
  TGI: > 100 µM
HT29 colon
  TGI: > 100 µM
SW-620 colon
  TGI: > 100 µM
CAKI-1 renal
  TGI: > 100 µM
NCI/ADR-RES ovarian
  TGI: > 100 µM
UACC-62 melanoma
  TGI: > 100 µM
COLO 205 colon
  TGI: > 100 µM
NCI-H23 lung
  TGI: > 100 µM
PC-3 prostate
  TGI: > 100 µM
